Results reported in patent US8697662B2, “Methods for treating Kaposi sarcoma” (PTC Therapeutics, Inc., priority 2009, dated 2014).
Like-named read-outs stand apart in the source and are kept apart here.

How the values were obtained:
[1] = system: soluble VEGF121 and VEGF165 isoforms; experiment: ELISA of soluble VEGF production in multiple human tumor cell lines (EC50); assay type: cell-based; details: 18 human tumor cell lines
Description: Study Design. […] In these experiments, cultures were established under normoxic conditions (21% oxygen). […] Cells requiring induction of VEGF production were incubated under hypoxic conditions (1% oxygen). At the completion of treatment, the conditioned media were collected and assayed by ELISA (as described in Section 9.1.1.1) for soluble VEGF121 and VEGF165 isoforms; results were calculated as percentage inhibition relative to vehicle treated controls. EC50 values were calculated from the dose concentration response curves.

[2] = 28-day oral toxicity study in rats with 14-day recovery; assay type: in vivo
Description: (§1) A battery of genotoxicity studies was also performed. […] The L23 vehicle was used.
Exposures were maximal at 120 mg/kg/day.

[3] = system: soluble VEGF121 and VEGF165 isoforms; experiment: ELISA of soluble VEGF121/165 production in HeLa cells under hypoxia or normoxia; assay type: cell-based, human
Description: Experimental Design. HeLa (human cervical carcinoma) cell cultures were established under normoxic conditions (21% oxygen). HeLa cells increase VEGF production 4- to 5-fold in response to hypoxia. […] At the completion of treatment, the conditioned media were collected and the VEGF protein levels were assayed in an enzyme-linked immunosorbent assay (ELISA) with primary antibodies that recognize the soluble VEGF121 and VEGF165 isoforms (R & D Systems, Minneapolis, Minn., USA). To ensure that decreases in VEGF concentration were not due to cytotoxicity, cultures were assayed using a standard assay ([…]-GLO® Luminescent Cell Viability Assay; Promega, Madison, Wis., USA) that measures total cellular adenosine triphosphate (ATP) concentrations as an indicator of cell viability.

[4] = Oral pharmacokinetics in mice; assay type: in vivo
Description: The pharmacokinetic evaluations in mice were adjuncts to the primary pharmacodynamic xenograft studies. The evaluations in rats included toxicokinetic assessments in single-dose, 7-day, and 28-day toxicology studies as well as a mass-balance study after a single oral dose of ^14C-Compound #10. The evaluations in dogs included toxicokinetic assessments in 7-day and 28-day toxicology studies. In the studies performed, rodents were dosed once daily with Compound #10 formulated in vehicle and administered via oral gavage.

[5] = Phase 1 escalating multiple-dose study in healthy volunteers: safety and tolerability; assay type: in vivo; details: through the highest dose level tested ([…] TID)
Description: The study was performed under the oversight of the French health authorities. The study was not performed under an IND.
Methods. The trial was a Phase 1, randomized, escalating multiple dose, single center study conducted in 2 stages.

[6] = system: HT1080 xenografts; experiment: Time course of tumor size and plasma human VEGF in HT1080 xenografts; assay type: in vivo, athymic nude mice
Description: Experimental Design. HT1080 cells (5×10^6 cells/mouse) were implanted subcutaneously in male athymic nude mice.
Tumor size was measured by calipers immediately pre-treatment and at the time of sacrifice on Day 1, 2, or 3 (5 mice per group per day). At sacrifice, the plasma was collected for assay of pathologic human VEGF concentration using an ELISA that recognizes human VEGF121 and VEGF165 (as described in Section 9.1.1.1).

[7] = target: T1, CYP1A2 (Homo sapiens, UniProt P05177); experiment: CYP inhibition in human hepatic microsomes or recombinant isoenzymes: CYP1A2; assay type: in vitro ADME
T1 construct: host or cells: human hepatic microsomes or human recombinant isoenzymes
Excerpt: It is possible that in certain clinical trial subjects, such agents may need to be adjusted for dosing or replaced by alternative agents that are not metabolized by CYP2D6, particularly when such agents may have a low therapeutic index.

[8] = system: hypoxia-inducible endogenous VEGF expression; experiment: Hypoxia-inducible endogenous VEGF expression ELISA in HeLa cells, dose-response EC50 (Table 3); assay type: cell-based; details: Homo sapiens, hypoxic conditions (1% O2), VEGF ELISA of conditioned media
Description: The ability of the Compounds to modulate hypoxia-inducible endogenous VEGF expression may be analyzed as follows. VEGF protein levels may be monitored by an ELISA assay (R&D Systems). Briefly, HeLa cells may be cultured for 24-48 hours under hypoxic conditions (1% O2, 5% CO2, balanced with nitrogen) in the presence or absence of a Compound. The conditioned media may then be assayed by ELISA, and the concentration of VEGF calculated from the standard ELISA curve of each assay.
A dose-response analysis may be performed using the ELISA assay and conditions described above. The conditions for the dose-response ELISA are analogous to those described above. A series of, e.g., seven different concentrations may be analyzed. In parallel, a dose-response cytotoxicity assay may be performed using Cell Titer Glo (Promega) under the same conditions as the ELISA to ensure that the inhibition of VEGF expression was not due to the cytotoxicity.

[9] = system: VEGF189 and VEGF206 isoforms; experiment: In-Cell Western and Western blot of matrix associated VEGF189/206 in HT1080 cells; assay type: cell-based, human; details: normoxic, 48 hours
Description: Experimental Design. HT1080 (human fibrosacoma) cell cultures were established under normoxic conditions (21% oxygen). HT1080 cells constitutively overproduce VEGF even under normoxic conditions. […] At the completion of treatment, the cells were washed and harvested. Cells were incubated with a primary antibody that recognizes the VEGF189 and VEGF206 isoforms. Infrared-dye labeled antibodies were applied secondarily, and the amounts of VEGF189 and VEGF206 were determined using the IN-CELL WESTERN® assay and ODYSSEY® infrared imaging system (Li-Cor, Lincoln, Nebr., USA); results are expressed as percentage inhibition relative to vehicle treated controls. Conventional Western blotting using the same primary antibody was also performed to confirm the presence of the matrix associated isoforms; for these experiments actin was used as a loading control. Actin is a ubiquitous housekeeping protein that is not known to be post transcriptionally regulated.

[10] = Quantitative whole-body autoradiography tissue distribution of 14C-Compound #10; assay type: in vivo; details: rats, single oral 50 mg/kg
Description: For the QWBA, the carcasses were prepared by immediately freezing them, embedding them in chilled carboxymethylcellulose, and freezing them into blocks. Appropriate cryomicrotome sections of the blocks at 40 μm thickness were collected on adhesive tape. Mounted sections were tightly wrapped and exposed on phosphorimaging screens along with plastic embedded autoradiographic standards. Exposed screens were scanned and the autoradiographic standard image data were sampled to create a calibrated standard curve. Specified tissues, organs, and fluids were analyzed.

[11] = 7-day oral toxicity study in rats; details: Sprague Dawley, rat, in vivo; for NOAEL at 7 days: oral gavage
Description: as §1
Maximal exposures occurred at a dose of 120 mg/kg/day.

[12] = system: soluble VEGF isoforms; experiment: ELISA of soluble VEGF production in nontransformed keratinocytes under hypoxia or normoxia; assay type: cell-based, human; details: normoxic, 72 hours
Description: Experimental Design. Nontransformed normal human keratinocyte cell cultures were established under normoxic conditions (21% oxygen). […] At the completion of treatment, cells were assessed for viability with an ATP assay and conditioned media were evaluated for VEGF protein levels by ELISA (as described in Section 9.1.1.1).

T1 sequence (P05177 whole entry): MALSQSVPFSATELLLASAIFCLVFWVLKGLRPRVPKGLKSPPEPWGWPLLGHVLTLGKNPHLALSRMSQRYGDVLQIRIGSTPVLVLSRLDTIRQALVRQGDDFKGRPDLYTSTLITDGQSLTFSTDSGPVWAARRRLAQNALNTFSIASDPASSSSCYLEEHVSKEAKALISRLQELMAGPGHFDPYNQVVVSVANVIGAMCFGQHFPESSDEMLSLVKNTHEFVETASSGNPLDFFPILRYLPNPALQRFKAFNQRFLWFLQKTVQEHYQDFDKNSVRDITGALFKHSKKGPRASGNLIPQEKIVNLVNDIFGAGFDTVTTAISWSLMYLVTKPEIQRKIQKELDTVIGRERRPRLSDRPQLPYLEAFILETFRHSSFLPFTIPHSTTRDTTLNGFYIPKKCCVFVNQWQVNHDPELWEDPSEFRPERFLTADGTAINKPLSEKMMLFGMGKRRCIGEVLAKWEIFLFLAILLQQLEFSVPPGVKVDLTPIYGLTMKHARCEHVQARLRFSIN

## COc1ccc(C2c3[nH]c4ccc(Cl)cc4c3CCN2C(=O)Oc2ccc(Cl)cc2)cc1 (racemic) [Compound #10]
[1]
  EC50 values for cell lines showing VEGF inhibition (in words): low nanomolar range
[2]; 40 and 120 mg/kg/day, males but not females, 28-day study
  mean PT and aPTT: reversible increases
[2]; both sexes, Sprague Dawley, rat, in vivo, rats, oral gavage
  NOAEL at 28 days: 12 mg/kg/day
[2]; rats, 12, 40, and 120 mg/kg/day, 28 days
  dose at which exposures were maximal: 120 mg/kg/day
[3]; normoxic, 48 hours
  decrease in VEGF concentrations in conditioned media: 39%
[3]; stress (hypoxia)-induced VEGF
  inhibition of VEGF production (in words): inhibit stress-induced VEGF production
[4]
  oral bioavailability (in words): orally bioavailable
[4]; oral
  relationship between dose and plasma exposure (in words): bell-shaped curve
[5]
  dose limiting toxicities: no dose limiting toxicities were observed
[6]; Days 2 and 3, 10 mg/kg oral QD
  pathologic plasma human VEGF concentrations (in words): continued to decline
[6]; by Day 1
  pathologic plasma human VEGF levels (in words): numerically lower than in control animals
[6]; by Day 3 of treatment
  reducing tumor derived plasma VEGF levels, comparison (in words): as active as bevacizumab and more effective than doxorubicin
[7]
  inhibition of CYP1A2 (in words): No meaningful inhibition
[8]
  EC50: < 8 nM
[9]
  inhibition of matrix associated VEGF189 and VEGF206 isoforms (in words): potent concentration-dependent inhibition
[10]
  blood-brain barrier penetration (in words): penetrates the blood-brain barrier
  signs of toxicity: no overt signs of toxicity
[11]; 7 days
  dose at which maximal exposures occurred: 120 mg/kg/day
[11]; female, read-out: NOAEL for 7-days, female rats
  NOAEL at 7 days: 120 mg/kg/day
[11]; male, read-out: NOAEL for 7-days, male rats
  NOAEL at 7 days: 40 mg/kg/day
[12]
  decrease in VEGF concentrations in conditioned media: 21%
